According to PubChem BioAssay (NCI):
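Interpolation was linear, between the two tested concentrations surrounding the appropriate level; five concentrations were tested over 48 hours in 96-well plates. GI50 marks 50% less growth. At the TGI there is no net growth.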

Assays:
Test in all cases: NCI anticancer screen, dose series, 48 h
SK-OV-3 ovarian = test system: SK-OV-3 ovarian
OVCAR-8 ovarian = test system: OVCAR-8 ovarian
NCI-H460 lung = test system: NCI-H460 lung
COLO 205 colon = test system: COLO 205 colon
NCI-H522 lung = test system: NCI-H522 lung
CCRF-CEM leukemia = test system: CCRF-CEM leukemia
NCI-H23 lung = test system: NCI-H23 lung
786-0 renal = test system: 786-0 renal
U251 CNS = test system: U251 CNS
SF-295 CNS = test system: SF-295 CNS
SK-MEL-2 melanoma = test system: SK-MEL-2 melanoma
UACC-257 melanoma = test system: UACC-257 melanoma
HOP-62 NSCLC = test system: HOP-62 NSCLC
UACC-62 melanoma = test system: UACC-62 melanoma
BT-549 breast = test system: BT-549 breast
HS 578T breast = test system: HS 578T breast
IGROV1 ovarian = test system: IGROV1 ovarian
A549 NSCLC = test system: A549 NSCLC
DU-145 prostate = test system: DU-145 prostate
HCT-116 colon = test system: HCT-116 colon
EKVX NSCLC = test system: EKVX NSCLC
SF-268 CNS = test system: SF-268 CNS
RPMI-8226 leukemia = test system: RPMI-8226 leukemia
SNB-75 CNS = test system: SNB-75 CNS
OVCAR-3 ovarian = test system: OVCAR-3 ovarian
SK-MEL-5 melanoma = test system: SK-MEL-5 melanoma
HCC-2998 colon = test system: HCC-2998 colon
A498 renal = test system: A498 renal
KM12 colon = test system: KM12 colon
M14 melanoma = test system: M14 melanoma
SF-539 CNS = test system: SF-539 CNS
HCT-15 colon = test system: HCT-15 colon
HT29 colon = test system: HT29 colon
MDA-MB-231 breast = test system: MDA-MB-231 breast
LOX IMVI melanoma = test system: LOX IMVI melanoma
MALME-3M melanoma = test system: MALME-3M melanoma
SW-620 colon = test system: SW-620 colon
PC-3 prostate = test system: PC-3 prostate
SR leukemia = test system: SR leukemia
SNB-19 CNS = test system: SNB-19 CNS
SN12C renal = test system: SN12C renal
OVCAR-4 ovarian = test system: OVCAR-4 ovarian
NCI/ADR-RES ovarian = test system: NCI/ADR-RES ovarian
UO-31 renal = test system: UO-31 renal
HOP-92 NSCLC = test system: HOP-92 NSCLC
K-562 leukemia = test system: K-562 leukemia
OVCAR-5 ovarian = test system: OVCAR-5 ovarian
MOLT-4 leukemia = test system: MOLT-4 leukemia
TK-10 renal = test system: TK-10 renal
SK-MEL-28 melanoma = test system: SK-MEL-28 melanoma
MCF7 breast = test system: MCF7 breast
NCI-H226 lung = test system: NCI-H226 lung
CAKI-1 renal = test system: CAKI-1 renal
HL-60(TB) leukemia = test system: HL-60(TB) leukemia
MDA-MB-435 = test system: MDA-MB-435
ACHN renal = test system: ACHN renal
T-47D breast = test system: T-47D breast
RXF 393 renal = test system: RXF 393 renal

In the case of `CC(=O)O[C@H](C[C@H](C(C)C)N(C)C(=O)[C@@H](NC(=O)[C@H]1CCCCN1C)C(C)C)c1nc(C(=O)N[C@@H](Cc2ccccc2)C[C@H](C)C(=O)O)c(C)s1`, the GI50 (SK-OV-3 ovarian) is reported as less than 0.0025 µM, the TGI (SK-OV-3 ovarian) is reported as greater than 25 µM and the GI50 (OVCAR-8 ovarian) is reported as less than 0.0025 µM. For the same molecule, the TGI (OVCAR-8 ovarian) was greater than 25 µM, the GI50 (NCI-H460 lung) was less than 0.0025 µM and the TGI (NCI-H460 lung) was greater than 25 µM. The GI50 (COLO 205 colon) was less than 0.0025 µM, the TGI (COLO 205 colon) was 0.00595 µM and the GI50 (NCI-H522 lung) was less than 0.0025 µM. For the same molecule, the TGI (NCI-H522 lung) was greater than 25 µM, the GI50 (CCRF-CEM leukemia) was less than 0.0025 µM and the TGI (CCRF-CEM leukemia) was greater than 25 µM. The GI50 (NCI-H23 lung) was less than 0.0025 µM, the TGI (NCI-H23 lung) was greater than 25 µM and the GI50 (786-0 renal) was less than 0.0025 µM. It also gave a TGI (786-0 renal) greater than 25 µM, a GI50 (U251 CNS) of less than 0.0025 µM and a TGI (U251 CNS) greater than 25 µM. It also gave a GI50 (SF-295 CNS) of less than 0.0025 µM, a TGI (SF-295 CNS) greater than 25 µM and a GI50 (SK-MEL-2 melanoma) of less than 0.0025 µM. For the same molecule, the TGI (SK-MEL-2 melanoma) was greater than 25 µM, the GI50 (UACC-257 melanoma) was greater than 25 µM and the TGI (UACC-257 melanoma) was greater than 25 µM. It also gave a GI50 (HOP-62 NSCLC) of less than 0.0025 µM, a TGI (HOP-62 NSCLC) greater than 25 µM and a GI50 (UACC-62 melanoma) of less than 0.0025 µM. It also gave a TGI (UACC-62 melanoma) greater than 25 µM, a GI50 (BT-549 breast) of less than 0.0025 µM and a TGI (BT-549 breast) of 0.0627 µM. It also gave a GI50 (HS 578T breast) of less than 0.0025 µM, a TGI (HS 578T breast) greater than 25 µM and a GI50 (IGROV1 ovarian) of 0.00302 µM. It also gave a TGI (IGROV1 ovarian) greater than 25 µM, a GI50 (A549 NSCLC) of 0.00532 µM and a TGI (A549 NSCLC) greater than 25 µM. For the same molecule, the GI50 (DU-145 prostate) was less than 0.0025 µM, the TGI (DU-145 prostate) was greater than 25 µM and the GI50 (HCT-116 colon) was less than 0.0025 µM. It also gave a TGI (HCT-116 colon) greater than 25 µM, a GI50 (EKVX NSCLC) of 0.00266 µM and a TGI (EKVX NSCLC) greater than 25 µM. For the same molecule, the GI50 (SF-268 CNS) was less than 0.0025 µM, the TGI (SF-268 CNS) was greater than 25 µM and the GI50 (RPMI-8226 leukemia) was less than 0.0025 µM. It also gave a TGI (RPMI-8226 leukemia) greater than 25 µM, a GI50 (SNB-75 CNS) of less than 0.0025 µM and a TGI (SNB-75 CNS) greater than 25 µM. The GI50 (OVCAR-3 ovarian) was less than 0.0025 µM, the TGI (OVCAR-3 ovarian) was greater than 25 µM and the GI50 (SK-MEL-5 melanoma) was less than 0.0025 µM. For the same molecule, the TGI (SK-MEL-5 melanoma) was 0.0144 µM, the GI50 (HCC-2998 colon) was less than 0.0025 µM and the TGI (HCC-2998 colon) was greater than 25 µM. For the same molecule, the GI50 (A498 renal) was less than 0.0025 µM, the TGI (A498 renal) was less than 0.0025 µM and the GI50 (KM12 colon) was less than 0.0025 µM. The TGI (KM12 colon) was greater than 25 µM, the GI50 (M14 melanoma) was less than 0.0025 µM and the TGI (M14 melanoma) was greater than 25 µM. The GI50 (SF-539 CNS) was less than 0.0025 µM, the TGI (SF-539 CNS) was 0.0187 µM and the GI50 (HCT-15 colon) was 0.00385 µM. The TGI (HCT-15 colon) was greater than 25 µM, the GI50 (HT29 colon) was less than 0.0025 µM and the TGI (HT29 colon) was greater than 25 µM. It also gave a GI50 (MDA-MB-231 breast) of less than 0.0025 µM, a TGI (MDA-MB-231 breast) greater than 25 µM and a GI50 (LOX IMVI melanoma) of less than 0.0025 µM. For the same molecule, the TGI (LOX IMVI melanoma) was greater than 25 µM, the GI50 (MALME-3M melanoma) was 4.56 µM and the TGI (MALME-3M melanoma) was greater than 25 µM. The GI50 (SW-620 colon) was less than 0.0025 µM, the TGI (SW-620 colon) was greater than 25 µM and the GI50 (PC-3 prostate) was less than 0.0025 µM. For the same molecule, the TGI (PC-3 prostate) was greater than 25 µM, the GI50 (SR leukemia) was less than 0.0025 µM and the TGI (SR leukemia) was greater than 25 µM. For the same molecule, the GI50 (SNB-19 CNS) was less than 0.0025 µM, the TGI (SNB-19 CNS) was greater than 25 µM and the GI50 (SN12C renal) was less than 0.0025 µM. For the same molecule, the TGI (SN12C renal) was greater than 25 µM, the GI50 (OVCAR-4 ovarian) was greater than 25 µM and the TGI (OVCAR-4 ovarian) was greater than 25 µM. For the same molecule, the GI50 (NCI/ADR-RES ovarian) was 0.0574 µM, the TGI (NCI/ADR-RES ovarian) was greater than 25 µM and the GI50 (UO-31 renal) was 0.0161 µM. The TGI (UO-31 renal) was greater than 25 µM, the GI50 (HOP-92 NSCLC) was greater than 25 µM and the TGI (HOP-92 NSCLC) was greater than 25 µM. It also gave a GI50 (K-562 leukemia) of less than 0.0025 µM, a TGI (K-562 leukemia) greater than 25 µM and a GI50 (OVCAR-5 ovarian) of 0.0085 µM. For the same molecule, the TGI (OVCAR-5 ovarian) was greater than 25 µM, the GI50 (MOLT-4 leukemia) was less than 0.0025 µM and the TGI (MOLT-4 leukemia) was greater than 25 µM. The GI50 (TK-10 renal) was greater than 25 µM, the TGI (TK-10 renal) was greater than 25 µM and the GI50 (SK-MEL-28 melanoma) was less than 0.0025 µM. It also gave a TGI (SK-MEL-28 melanoma) greater than 25 µM, a GI50 (MCF7 breast) of less than 0.0025 µM and a TGI (MCF7 breast) greater than 25 µM.
For `CCOC(=O)C1C(=O)CC(C)(O)C(C(=O)OCC)C1c1ccc(N(C)C)cc1` (stereo not given), the TGI (OVCAR-8 ovarian) was greater than 100 µM, the TGI (NCI-H460 lung) was greater than 100 µM and the TGI (COLO 205 colon) was greater than 100 µM. It also gave a TGI (NCI-H522 lung) greater than 100 µM, a TGI (CCRF-CEM leukemia) greater than 100 µM and a TGI (NCI-H23 lung) greater than 100 µM. The TGI (NCI-H226 lung) was greater than 100 µM, the TGI (786-0 renal) was greater than 100 µM and the TGI (U251 CNS) was greater than 100 µM. It also gave a TGI (SF-295 CNS) greater than 100 µM, a TGI (SK-MEL-2 melanoma) greater than 100 µM and a TGI (UACC-257 melanoma) greater than 100 µM. The TGI (HOP-62 NSCLC) was greater than 100 µM, the TGI (UACC-62 melanoma) was greater than 100 µM and the TGI (CAKI-1 renal) was greater than 100 µM. It also gave a TGI (BT-549 breast) greater than 100 µM, a TGI (IGROV1 ovarian) greater than 100 µM and a TGI (A549 NSCLC) greater than 100 µM. The TGI (HL-60(TB) leukemia) was greater than 100 µM, the TGI (DU-145 prostate) was greater than 100 µM and the TGI (HCT-116 colon) was greater than 100 µM. The TGI (EKVX NSCLC) was greater than 100 µM, the TGI (SF-268 CNS) was greater than 100 µM and the TGI (SNB-75 CNS) was greater than 100 µM. It also gave a TGI (OVCAR-3 ovarian) greater than 100 µM, a TGI (SK-MEL-5 melanoma) greater than 100 µM and a TGI (MDA-MB-435) greater than 100 µM. For the same molecule, the TGI (HCC-2998 colon) was greater than 100 µM, the TGI (A498 renal) was greater than 100 µM and the TGI (ACHN renal) was greater than 100 µM. It also gave a TGI (KM12 colon) greater than 100 µM, a TGI (HCT-15 colon) greater than 100 µM and a TGI (HT29 colon) greater than 100 µM. The TGI (MDA-MB-231 breast) was greater than 100 µM, the TGI (LOX IMVI melanoma) was greater than 100 µM and the TGI (MALME-3M melanoma) was greater than 100 µM. The TGI (T-47D breast) was greater than 100 µM, the TGI (SW-620 colon) was greater than 100 µM and the TGI (PC-3 prostate) was greater than 100 µM. For the same molecule, the TGI (SR leukemia) was greater than 100 µM, the TGI (SNB-19 CNS) was greater than 100 µM and the TGI (SN12C renal) was greater than 100 µM. The TGI (OVCAR-4 ovarian) was greater than 100 µM, the TGI (NCI/ADR-RES ovarian) was greater than 100 µM and the TGI (UO-31 renal) was greater than 100 µM. For the same molecule, the TGI (RXF 393 renal) was greater than 100 µM, the TGI (HOP-92 NSCLC) was greater than 100 µM and the TGI (K-562 leukemia) was greater than 100 µM. For the same molecule, the TGI (OVCAR-5 ovarian) was greater than 100 µM, the TGI (MOLT-4 leukemia) was greater than 100 µM and the TGI (TK-10 renal) was greater than 100 µM. The TGI (SK-MEL-28 melanoma) was greater than 100 µM and the TGI (MCF7 breast) was greater than 100 µM.
